Experimental data: patent US20120245137A1 (Zalicus Pharmaceuticals Ltd., priority 2009, published 2012)

Legend:
Format in all cases: cell-based
[1] = molecular target: human α1G T-type channels (Homo sapiens, UniProt O43497); experiment: T-type calcium channel block, whole cell patch clamp, α1G; conditions: HEK cells stably expressing human α1G; mainly non-inactivated protocol; values above 10,000 nM represented as 10000
In short: (§1)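 Cells are stable HEK 293 lines carrying human α1G or α1H channels, patched in whole-cell mode. Resting block comes from the non-inactivated pre-pulse; voltage-dependent block from the inactivated protocol.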

[2] = molecular target: human α1H T-type channels (Homo sapiens, UniProt O95180); experiment: T-type calcium channel block, whole cell patch clamp, α1H; conditions: HEK cells stably expressing human α1H; mainly non-inactivated protocol; values above 10,000 nM represented as 10000
In short: as §1

[3] = molecular target: N-type calcium channel subunits (α1B, α2δ, and β3a) (Homo sapiens, UniProt Q00975); experiment: Block of Cav2.2 channel, whole cell voltage clamp, manual and PatchXpress; conditions: Table 5; table follows Assay Example 3 (whole cell voltage clamp / PatchXpress); assay not given
Sequence of N-type calcium channel subunits (α1B, α2δ, and β3a) (Q00975 whole entry): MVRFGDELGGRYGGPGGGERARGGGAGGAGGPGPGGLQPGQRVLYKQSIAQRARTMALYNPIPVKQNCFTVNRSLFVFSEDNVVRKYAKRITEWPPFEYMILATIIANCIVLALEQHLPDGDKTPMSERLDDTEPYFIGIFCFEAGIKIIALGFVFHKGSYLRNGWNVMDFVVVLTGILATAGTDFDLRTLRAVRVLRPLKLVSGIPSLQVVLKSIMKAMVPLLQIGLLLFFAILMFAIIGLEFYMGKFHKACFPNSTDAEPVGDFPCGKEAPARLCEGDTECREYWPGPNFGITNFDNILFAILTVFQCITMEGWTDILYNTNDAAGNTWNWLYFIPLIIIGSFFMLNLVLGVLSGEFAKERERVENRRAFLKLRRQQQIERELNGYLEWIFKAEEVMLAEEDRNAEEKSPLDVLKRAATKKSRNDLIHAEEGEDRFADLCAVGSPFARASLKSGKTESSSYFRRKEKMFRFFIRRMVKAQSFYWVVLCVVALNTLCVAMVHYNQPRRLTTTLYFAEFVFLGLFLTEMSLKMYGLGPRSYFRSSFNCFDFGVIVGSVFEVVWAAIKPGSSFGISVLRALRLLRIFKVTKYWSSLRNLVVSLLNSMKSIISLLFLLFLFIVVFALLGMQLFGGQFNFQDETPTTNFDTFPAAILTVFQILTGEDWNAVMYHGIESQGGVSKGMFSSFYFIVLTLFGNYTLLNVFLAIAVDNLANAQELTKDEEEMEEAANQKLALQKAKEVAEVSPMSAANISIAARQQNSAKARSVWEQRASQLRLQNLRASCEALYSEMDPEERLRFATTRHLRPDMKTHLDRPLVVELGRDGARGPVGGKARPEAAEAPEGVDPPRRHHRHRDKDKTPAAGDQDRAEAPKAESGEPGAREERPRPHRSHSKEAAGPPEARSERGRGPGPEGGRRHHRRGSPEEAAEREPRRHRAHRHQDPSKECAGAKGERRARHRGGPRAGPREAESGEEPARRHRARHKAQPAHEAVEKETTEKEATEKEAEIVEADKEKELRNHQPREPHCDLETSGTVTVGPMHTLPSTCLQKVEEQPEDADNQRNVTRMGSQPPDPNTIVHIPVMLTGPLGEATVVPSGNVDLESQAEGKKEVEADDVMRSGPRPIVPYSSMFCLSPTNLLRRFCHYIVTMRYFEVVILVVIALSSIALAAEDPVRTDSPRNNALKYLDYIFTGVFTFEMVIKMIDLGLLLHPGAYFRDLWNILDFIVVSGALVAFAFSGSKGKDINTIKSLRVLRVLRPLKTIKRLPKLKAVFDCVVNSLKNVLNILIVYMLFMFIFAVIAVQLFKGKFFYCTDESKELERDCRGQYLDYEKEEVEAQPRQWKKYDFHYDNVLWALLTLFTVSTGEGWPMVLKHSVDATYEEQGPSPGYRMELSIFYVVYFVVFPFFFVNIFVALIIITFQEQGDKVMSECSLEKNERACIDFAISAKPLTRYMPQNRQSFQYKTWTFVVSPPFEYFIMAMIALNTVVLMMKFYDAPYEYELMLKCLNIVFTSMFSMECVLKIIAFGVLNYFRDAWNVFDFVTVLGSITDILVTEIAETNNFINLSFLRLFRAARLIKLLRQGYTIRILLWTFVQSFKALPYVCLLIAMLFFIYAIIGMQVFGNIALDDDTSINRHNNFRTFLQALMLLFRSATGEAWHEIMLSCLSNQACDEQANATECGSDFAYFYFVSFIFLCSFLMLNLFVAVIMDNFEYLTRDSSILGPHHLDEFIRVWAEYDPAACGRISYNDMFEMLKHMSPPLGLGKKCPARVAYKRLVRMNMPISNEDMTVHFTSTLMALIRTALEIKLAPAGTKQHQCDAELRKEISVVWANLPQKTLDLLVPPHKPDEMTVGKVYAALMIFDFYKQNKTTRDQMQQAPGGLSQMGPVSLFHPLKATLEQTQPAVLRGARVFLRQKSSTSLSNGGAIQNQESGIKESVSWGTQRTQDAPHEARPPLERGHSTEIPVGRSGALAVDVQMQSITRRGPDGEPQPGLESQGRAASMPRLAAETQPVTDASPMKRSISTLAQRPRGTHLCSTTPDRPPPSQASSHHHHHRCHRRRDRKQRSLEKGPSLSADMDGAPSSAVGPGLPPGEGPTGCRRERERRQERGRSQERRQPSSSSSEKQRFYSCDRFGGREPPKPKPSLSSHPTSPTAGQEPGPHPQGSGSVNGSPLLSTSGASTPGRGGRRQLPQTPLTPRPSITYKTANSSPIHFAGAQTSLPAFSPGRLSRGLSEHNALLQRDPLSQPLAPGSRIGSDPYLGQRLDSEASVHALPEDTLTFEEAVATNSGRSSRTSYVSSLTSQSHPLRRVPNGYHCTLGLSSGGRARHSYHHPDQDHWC
Sequence of N-type calcium channel subunits (α1B, α2δ, and β3a) (P54289 25-1103 partner): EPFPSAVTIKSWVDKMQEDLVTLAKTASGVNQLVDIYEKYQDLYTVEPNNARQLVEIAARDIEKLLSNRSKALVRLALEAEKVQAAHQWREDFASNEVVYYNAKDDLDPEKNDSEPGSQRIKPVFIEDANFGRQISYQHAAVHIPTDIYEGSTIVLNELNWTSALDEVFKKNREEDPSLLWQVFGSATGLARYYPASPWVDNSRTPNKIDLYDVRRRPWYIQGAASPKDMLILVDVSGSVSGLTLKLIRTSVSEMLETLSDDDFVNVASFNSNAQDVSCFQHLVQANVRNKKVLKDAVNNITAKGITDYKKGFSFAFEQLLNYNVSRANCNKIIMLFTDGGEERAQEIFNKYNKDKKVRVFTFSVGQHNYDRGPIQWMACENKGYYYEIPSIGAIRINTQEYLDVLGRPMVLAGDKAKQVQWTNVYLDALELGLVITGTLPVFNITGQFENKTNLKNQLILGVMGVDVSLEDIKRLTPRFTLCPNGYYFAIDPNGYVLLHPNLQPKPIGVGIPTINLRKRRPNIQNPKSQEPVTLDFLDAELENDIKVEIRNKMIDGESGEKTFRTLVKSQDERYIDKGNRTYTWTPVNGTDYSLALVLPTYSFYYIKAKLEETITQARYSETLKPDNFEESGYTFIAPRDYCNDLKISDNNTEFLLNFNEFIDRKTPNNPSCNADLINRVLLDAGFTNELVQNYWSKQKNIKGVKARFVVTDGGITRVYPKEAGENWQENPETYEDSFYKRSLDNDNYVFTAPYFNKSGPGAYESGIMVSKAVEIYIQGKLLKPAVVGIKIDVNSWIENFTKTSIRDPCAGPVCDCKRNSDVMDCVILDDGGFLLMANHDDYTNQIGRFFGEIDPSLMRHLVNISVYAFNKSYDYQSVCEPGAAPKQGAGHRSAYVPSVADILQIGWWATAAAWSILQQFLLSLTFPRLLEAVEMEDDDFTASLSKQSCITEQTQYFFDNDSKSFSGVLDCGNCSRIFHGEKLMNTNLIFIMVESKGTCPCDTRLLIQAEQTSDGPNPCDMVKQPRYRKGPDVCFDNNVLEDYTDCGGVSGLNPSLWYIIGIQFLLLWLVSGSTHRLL
Sequence of N-type calcium channel subunits (α1B, α2δ, and β3a) (P54284 whole entry partner): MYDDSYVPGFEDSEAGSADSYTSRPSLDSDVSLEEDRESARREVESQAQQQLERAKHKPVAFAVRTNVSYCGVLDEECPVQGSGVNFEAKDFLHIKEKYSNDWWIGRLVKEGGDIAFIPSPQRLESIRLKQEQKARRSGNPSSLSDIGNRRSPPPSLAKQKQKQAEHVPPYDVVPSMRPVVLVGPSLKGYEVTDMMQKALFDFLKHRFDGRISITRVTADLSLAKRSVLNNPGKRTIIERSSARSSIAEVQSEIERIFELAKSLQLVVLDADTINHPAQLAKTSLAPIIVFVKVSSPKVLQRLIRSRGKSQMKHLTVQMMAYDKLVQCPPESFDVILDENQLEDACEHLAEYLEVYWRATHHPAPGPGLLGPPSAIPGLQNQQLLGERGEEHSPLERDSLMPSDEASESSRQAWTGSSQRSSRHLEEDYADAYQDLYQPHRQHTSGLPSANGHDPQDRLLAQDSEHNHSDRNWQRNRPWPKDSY
In short: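 Percent block taken as current amplitude ratio with versus without compound, applied in rising doses; IC50 fitted where one cell received multiple doses. Protocol: 50 ms pulses to +20 mV at 0.067 Hz from […] or −90 mV holding; P/n leak subtraction, no junction-potential correction; manual and PatchXpress recordings.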

Row | SMILES | IC50 [1] [µM] | IC50 [2] [µM] | IC50 [3] [nM]
1 | O=C(N[C@H]1CC[C@@](F)(S(=O)(=O)c2cccc(OC(F)(F)F)c2)CC1)c1cncc(C(F)(F)F)c1 [Compound 252, N-((1S,4S)-4-fluoro-4-(3-(trifluoromethoxy)phenylsulfonyl)cyclohexyl)-5-(trifluoromethyl)nicotinamide] | 0.45 | 0.67 | 350
2 | O=C(N[C@H]1CC[C@@](F)(S(=O)(=O)c2cccc(OC(F)(F)F)c2)CC1)c1ccnn1CC(F)(F)F [Compound 253] | 1.19 | 0.46 | 320
3 | Cn1nc(C(F)(F)F)cc1C(=O)N[C@H]1CC[C@@](F)(S(=O)(=O)c2cccc(OC(F)(F)F)c2)CC1 [Compound 255, N-((1S,4S)-4-fluoro-4-(3-(trifluoromethoxy)phenylsulfonyl)cyclohexyl)-1-methyl-3-(trifluoromethyl)-1H-pyrazole-5-carboxamide] | 2.01 | 3.32 | 210
4 | O=C(N[C@H]1CC[C@@](F)(S(=O)(=O)c2cccc(OC(F)(F)F)c2)CC1)c1ccc(F)c(Cl)c1 [Compound 256, 3-chloro-4-fluoro-N-((1S,4S)-4-fluoro-4-(3-(trifluoromethoxy)phenylsulfonyl)cyclohexyl)benzamide] | 2.01 | 3.32 | 150
5 | CS(=O)(=O)c1nc(C(F)(F)F)ccc1C(=O)N[C@H]1CC[C@@](F)(S(=O)(=O)c2cccc(OC(F)(F)F)c2)CC1 [Compound 257] | 6.9 | 9.02 | 680
6 | CS(=O)(=O)c1cc(C(F)(F)F)cnc1C(=O)N[C@H]1CC[C@@](F)(S(=O)(=O)c2cccc(C(F)(F)F)c2)CC1 [Compound 259, N-((1S,4S)-4-fluoro-4-(3-(trifluoromethyl)phenylsulfonyl)cyclohexyl)-3-(methylsulfonyl)-5-(trifluoromethyl)picolinamide] | 6.11 | 9.62 | 500
7 | CS(=O)(=O)c1nc(C(F)(F)F)ccc1C(=O)N[C@H]1CC[C@@](F)(S(=O)(=O)c2cccc(C(F)(F)F)c2)CC1 [Compound 260] | 2.3 | 3.65 | 1080

The next lines start with the values.

Row | IC50 [1] [µM] | IC50 [2] [µM] | IC50 [3] [nM] | SMILES
8 | 4.95 | 4.14 | 380 | COc1cc(C(=O)NCC2(C)CCC(S(=O)(=O)c3cccc(C(F)(F)F)c3)CC2)cc(Cl)n1 (stereo not drawn) [Compound 210, 2-chloro-6-methoxy-N-((1-methyl-4-(3-(trifluoromethyl)phenylsulfonyl)cyclohexyl)methyl)isonicotinamide]
9 | 2.65 | 0.36 | 260 | O=C(N[C@H]1CC[C@@](F)(S(=O)(=O)c2cccc(C(F)(F)F)c2)CC1)c1ccc(OCC(F)(F)F)nc1 [Compound 249, N-((1S,4S)-4-fluoro-4-(3-(trifluoromethyl)phenylsulfonyl)cyclohexyl)-6-(2,2,2-trifluoroethoxy)nicotinamide]
10 | 4.28 | 0.99 | 800 | O=C(N[C@H]1CC[C@](F)(S(=O)(=O)c2cccc(OC(F)(F)F)c2)CC1)c1ccc(F)c(Cl)c1 [Compound 250, 3-chloro-4-fluoro-N-((1R,4R)-4-fluoro-4-(3-(trifluoromethoxy)phenylsulfonyl)cyclohexyl)benzamide]
11 | 3.59 | 0.57 | 150 | O=C(N[C@H]1CC[C@@](F)(S(=O)(=O)c2cccc(OC(F)(F)F)c2)CC1)c1cc(F)cc(Cl)c1 [Compound 251]
12 | 0.74 | 0.26 | 370 | CS(=O)(=O)c1cc(C(F)(F)F)ccc1C(=O)N[C@H]1CC[C@@](F)(S(=O)(=O)c2cccc(OC(F)(F)F)c2)CC1 [Compound 254]
13 | > 10 | 7.18 | 1720 | O=C(N[C@H]1CC[C@@](F)(S(=O)(=O)c2cccc(C(F)(F)F)c2)CC1)c1cnc(C(F)(F)F)nc1 [Compound 261, N-((1S,4S)-4-fluoro-4-(3-(trifluoromethyl)phenylsulfonyl)cyclohexyl)-2-(trifluoromethyl)pyrimidine-5-carboxamide]
